Test results as given in patent US10457639B2, “Fluorescent regulators of RASSF1A expression and human cancer cell proliferation” (GEORGETOWN UNIVERSITY, priority 2008, dated 2019).
Read-outs that look alike come from different tables or passages of the source.

Key:
[1] = system: PC3 cells; experiment: Cell growth assay, trypan blue dye exclusion count; format: cell-based
Method: Cell Line and Cell Growth Assay. Human prostate cancer cell line PC-3 was procured from the American Type Cell Culture Collection (Manassas, Va.). Cells were grown in IMEM without phenol red (Invitrogen, Carlsbad, Calif.) with 10% fetal bovine serum, 2 mM glutamine, 100 U/mL penicillin G sodium, and 100 μg/mL streptomycin sulfate (Sigma, St. Louis, Mo.) in the presence of 5% CO2 at 37° C. For the cell growth experiment, PC-3 cells were seeded in 6-well plates in triplicate with an initial density of 2×10^3 cells per well. Twenty-four hours after seeding, the attached cells were treated with vehicle (DMSO) or 1, 5, 15, 30 and 60 μM compound. After another twenty-four hours, the cells were washed with 1×PBS, trypsinized and re-suspended in complete growth medium. Trypan blue (0.4%) was added to the cell suspension and both live and dead cells were counted using a hemocytometer.
Compounds 6-10 were screened for growth inhibition in PC-3 human prostate cancer cells using previously reported methods (Table 1; Sinha et al. The Prostate. 2006, 66, 1257-1265). […] This was unexpected, since the methyl moiety of mahanine is in the 3-position. Compound 9, with its GI50 value near that of the compound 6 series (compounds 6, 6a, 8) and a deprotected hydroxyl group in the 2-position, implies that whatever hindrance is imposed by a methyl in the 3-position can be partially overcome if steric bulk at the 2-position is reduced. Indeed, looking at the structure of mahanine, the restraint of the ether cycle may provide enough reduction of apparent bulk at the 2-position to moderate its methyl in the 3-position. Additionally, the ether ring system puts the equivalent of a methyl group in the 1-position, which could also be aiding in the low μM activity of mahanine, if the relatively lower values for the compound 6 series are any indication. Moreover, analyzing the structure of compound 10 based on the same criteria, the double-bonded carbon of the ether cycle in the 3-position along with bulk off the 2-position might explain its lesser growth inhibition when compared to mahanine, while the methyl in the 1-position still gives it better activity than compounds 7 and 7a.

[2] = system: PC-3 cells; experiment: BrdU labeling, DNA synthesis (Cell Proliferation ELISA BrdU); format: cell-based, human; conditions: 5 μM compound, 24 hours
Method: PC-3 cells were plated in 96-well plates and treated with 5 μM of compound. After 24 hours, the cells were assayed for BrdU labeling using the Cell Proliferation ELISA BrdU kit from Roche; background BrdU incorporation levels (absent anti-BrdU-peroxidase solution) were subtracted and values were normalized to those of control untreated cells.
BrdU Labeling. For the BrdU experiment, PC-3 cells were seeded in 96-well plates at a density of 2×10^3 cells/well, treated with 5 μM of compound for 24 hr and assayed BrdU using the Cell Proliferation ELISA BrdU (chemiluminescence) (Roche Diagnostics, IN) kit according to the manufacturer's protocol. Briefly, 10 μL of 100 μM BrdU labeling solution was added to the cultured cells and were incubated for 1 hr at 37° C., the labeling solution was removed and the FixDenat solution provided with the kit was added for 30 min and incubated at room temperature. Cells were then incubated with anti-BrdU conjugated to peroxidase (1:1500) for 60 min. Finally, the plates were washed and 100 μL of substrate solution was added to each well, and the light emission was measured using a microplate luminometer (Harta Instruments, Inc., Gaithersburg, Md.).
To assess the levels of DNA synthesis within cells treated with mahanine compared to those treated with compounds 6-10, cultured cells were treated according to standard procedure with 5-bromo-2-deoxy-uridine (BrdU) after 24 hours of treatment (FIG. 2).

[3] = system: DNA methyltransferase (DNMT); experiment: DNA methyltransferase activity assay (EpiQuik kit, nuclear extracts of treated PC-3 cells); format: cell-based, human; conditions: 72 hours
Method: Black bars: PC-3 cells were treated 72 hours with either mahanine or compound 6a at 5 μM or compound 6, 7, 7a, 8, or 9 at 15 μM and then assayed for DNMT activity using the DNMT activity kit from Epigentek. Data are mean of three independent experiments ±SEM. Grey bars: Densitometry from RT-PCR blot where the amount of RASSF1A mRNA re-expressed by mahanine treatment is normalized to 100%.
DNA methyltransferase activity assay. PC-3 cells were plated in complete growth media, treated with either mahanine or compound 6a at 2 μM or compound 6, 7, 7a, 8, 9, 10 at 15 μM for 3 days and then harvested. Nuclear extracts were prepared according to manufacturer's protocol (Nuclear extraction kit, Epigentek). DNMT activity was measured using an EpiQuik DNA methyltransferase activity assay kit (Epigentek). Results were expressed as percent DNMT activity compared to the DMSO control as 100%.
The levels of DNMT activity in treated versus untreated prostate cancer cells were measured using a DNMT assay kit from Epigentek. […] These reduced DNMT activities correlate with the pattern of RASSF1A induction described above (FIG. 7, grey bars). The data imply that inhibition of DNMT prevents hypermethylation of the RASSF1A promoter region and consequently restores RASSF1A.

[4] = system: cyclin D1; experiment: RT-PCR of cyclin D1 mRNA in treated PC-3 cells; format: cell-based, human
Method: (§1) Representative photograph of an experiment repeated thrice. PC-3 cells were treated 24 hours with either 15 μM for compounds 6, 7, 7a, 8, 9, 10 or 5 μM for compound KED-4-69 (compound 6a) before RNA extraction and RT-PCR amplification.
(§2) Reverse Transcriptase-polymerase Chain Reaction (RT-PCR). From PC-3 cells incubated 24 hours with either 15 μM of compound 6, 7, 7a, 8, 9, 10 or 5 μM of KED-4-69 (compound 6a), RNA was extracted with TRIzol solution (Invitrogen, Carlsbad, Calif.) and genes of interest were amplified using 500 ng of total RNA reverse-transcribed to cDNA using a Superscript II kit (Invitrogen) with random hexamers. Human-specific primers were designed using the Primer Quest program and purchased from Integrated DNA Technologies, Inc. (Coralville, Iowa). Their sequences and product band sizes are: cyclin D1 forward primer 5′-[…]-3′ (SEQ ID NO:1), cyclin D1 reverse primer 5′-[…]-3′ (SEQ ID NO:2) (475 bp) and GAPDH forward primer: 5′-CCA […]-3′ (SEQ ID NO:3), GAPDH reverse primer: 5′-TCTAGACGGCAG GTCAGGTCCACC-3′ (SEQ ID NO:4) (598 bp). PCRs were initiated at 94° C. for 2 min, followed by 28 cycles of 94° C. for 1 min, 1 min annealing temperature, 72° C. for 1 min, and final extension at 72° C. for 5 min. The annealing temperature for cyclin D1 and GAPDH was 60° C. Primers and PCR conditions for RASSF1A are used as described by Rong et al. (Oncogene. 2004, 23, 8216-8230). After amplification, PCR products were separated on 1.5% agarose gels and visualized by ethidium bromide fluorescence using the Fuji LAS-1000 Imager. Images were captured and imported to Adobe Photoshop. Band intensities were quantified by using ImageJ software (NIH, Bethesda, Md.).
(§3) It has been reported that mRNA levels of RASSF1A correlate to its protein expression levels (Rong et al. Oncogene, 2004, 23: 8216-8230). To investigate the effects of the synthetic compounds on RASSF1A and cyclin D1 expression, levels of the respective mRNAs in treated cells compared to control were analyzed (FIG. 3). […] Because overexpression of cyclin D1 is associated with tumorigenicity and proliferation in a variety of tumors, including prostate cancers, this downregulation provides a cancer treatment method (Chen, Y. et al. Oncogene. 1998, 16, 1913-1920; Musgrove, E. A. et al. Proc. Natl. Acad. Sci. USA. 1994, 91, 8022-8026).

[5] = system: RASSF1A; experiment: RT-PCR of RASSF1A mRNA in treated PC-3 cells; format: cell-based, human
Method: as §1, §2, §3

[6] = Homo sapiens, PC-3, concentration for 50% growth inhibition in PC3 cells, 24 hours of treatment, mean ± SEM of three observations, read-out: GI50
[7] = mahanine, concentration not given

Compound	DNA synthetic ability (BrdU labeling) [2]	DNMT activity versus DMSO control ([3]; 15 μM)	GI50 [1, 6]	cyclin D1 mRNA level versus control ([4]; 15 μM, 24 hours)	RASSF1A mRNA level versus control ([5]; 15 μM, 24 hours)	further results
COc1ccc2c(c1)[nH]c1c(C)c(O)ccc12 [Compound 8, 7-Methoxy-1-methyl-9H-carbazol-2-ol]	no change in the DNA synthetic ability	slight decrease in DNMT activity	–	–	–	GI50 ([1]; Homo sapiens, PC-3, 24 h): 18.7 ± 1.8 µM
COc1ccc2c(c1)[nH]c1cc(OS(=O)(=O)c3cccc4c(N(C)C)cccc34)c(C)cc12 [Compound 7a, 7-Methoxy-3-methyl-9H-carbazol-2-yl 5-(dimethylamino)naphthalene-1-sulfonate]	–	–	22.9 ± 4.5 µM	no change in expression levels from control	no change in expression levels from control	–
COc1ccc2c(c1)[nH]c1cc(O)c(C)cc12 [Compound 9, 7-Methoxy-3-methyl-9H-carbazol-2-ol]	decrease in DNA synthetic ability	slight decrease in DNMT activity	15.3 ± 2.8 µM	–	–	–
COc1ccc2c(c1)[nH]c1c(C)c(OCc3ccccc3)ccc12 [Compound 6, 2-(Benzyloxy)-7-methoxy-1-methyl-9H-carbazole]	decrease in DNA synthetic ability	Significant inhibition of DNMT activity	17.6 ± 2.7 µM	corresponding decrease in cyclin D1	significant increase in RASSF1A	–
mahanine [reference compound]	decrease in DNA synthetic ability	–	–	–	–	doses at which cytotoxic ([1]; PC-3 cells): above 5 μM; GI50 ([1]; concentration for 50% growth inhibition in PC3 cells, 24 hours of treatment, mean ± SEM of three observations, read-out: GI50): 2.5 ± 0.18 µM; cyclin D1 mRNA level versus control [4, 7]: corresponding decrease in cyclin D1; RASSF1A mRNA level versus control [5, 7]: significant increase in RASSF1A; DNMT activity versus DMSO control ([3]; 5 μM (FIG. 7 legend; method says 2 μM)): Significant inhibition of DNMT activity
COc1ccc2c(c1)[nH]c1cc(OCc3ccccc3)c(C)cc12 [Compound 7, 2-(benzyloxy)-7-methoxy-3-methyl-9H-carbazole]	–	–	48.9 ± 1.1 µM	no change in expression levels from control	no change in expression levels from control	–
